Data published in US4127687A, “Prevention of fouling of marine structures such as boat hulls” (Rohm and Haas Company, priority 1976, dated 1978).
Converted amounts (≈) assume the structure as drawn.

Experiments:
Enteromorpha spores = test: Laboratory toxicity test (Lab Bioassay) with Enteromorpha spores; assay type: in vivo; conditions: using Enteromorpha spores
Text: Standard laboratory toxicity tests use Enteromorpha spores (zoospores or gametes) but Ectocarpus spores and barnacle nauplii may also be used. During the spore tests additional information on the control of bacterial and diatom slimes becomes available since these organisms are unavoidably introduced with the spore inoculum.
More detailed laboratory toxicity tests on promising compounds determine LD50 values as percentage saturated solution.
^c Using Enteromorpha spores.

barnacle = test: Membrane Diffusion Raft Trials, barnacle control; assay type: in vivo, barnacles; conditions: membrane test, average 15 to 16 weeks of immersion
Text: (§1) 1). FIELD TESTS: - Membrane Diffusion Raft Trials
(§2) A specially constructed raft provides three types
(§3) a). Waterline Well illuminated, aerated
(§4) b). Flats Poorly illuminated deeper
(§5) A known quantity of the test compound is placed into a cylindrical plastic container whose open end is then covered with a membrane of known porosity; the complete unit is attached to the appropriate raft panel so that the poison can freely diffuse into the free water layer around it. Regular inspections, recording time and quantity of settlement, allow a life history of each membrane trial to be constructed. Each raft panel contains 35 compounds to be evaluated together with 4 standard poisons and 1 non-toxic membrane for control.
(§6) The behavior on the raft can thus be compared with that of the standard poisons and the non-toxic control. At normal loading a membrane over the standard poisons would be free from macro-fouling after six months immersion. Compounds showing selective effects against restricted groups of fouling organisms also show up by membrane testing.
(§7) After the completion of membrane tests the contents of all containers are checked visually for poison loss. An empty container indicates an unacceptably high solubility for long term effectiveness; where the poison loss is low the compound is tested in one of two ways depending on its performance against fouling.
(§8) In the membrane tests, the results of approximately 140 compounds evaluated appear in Table 1. The symbols "0" means no detactable effect, the symbol "+" indicates the compound is active against the given fouling organism, and the symbol "++" means that the compound appears to be effective over at least about a four month period for essentially preventing fouling activity by the given organism. In the Table, "weed" designates a grass-like algal growth common in sea water.
(§9) Membrane Test results are of an average 15 to 16 weeks of immersion,
(§10) ^a 0 = none, + = some, + + = effective.
^f The 1975 Spring settlement of barnacles was very meager and the […]

weed = test: Membrane Diffusion Raft Trials, weed control; assay type: in vivo, grass-like algal growth common in sea water; conditions: membrane test, average 15 to 16 weeks of immersion
Text: as §1, §2, §3, §4, §5, §6, §7, §8, §9, §10

[1] = Water solubility by UV spectrophotometric method; assay type: physicochemical; conditions: water; for solubility: saturated solution, Table 1, read-out: Solubility by UV method
Protocol: The water solubilities of several isothiazolones were determined by UV spectrophotometric measurements of saturated aqueous solution of each compound in comparison with measurement of solutions of carefully prepared known concentration as outlined in the following example.
DETERMINATION OF SOLUBILITY OF 5-CHLORO-2-(4-FLUOROPHENYL)-4-METHYL-3-ISOTHIAZOLONE OF EXAMPLE 115
A sample of 5-chloro-2-(4-fluorophenyl)-4-methyl-3-isothiazolone (0.0406 g., 1.67 × 10^-4 mole) was dissolved in 50 ml. of methanol. A 5 ml. aliquot of the solution was diluted to 1000 ml. with deionized water, providing a solution of 1.67 × 10^-5 moles/liter concentration. An ultraviolet spectrum of this solution was run using a 10 cm. cell. The absorbance (As) at the wave length of maximum absorption (279 nm.) was 1.208. The molar absorptivity, AM, was calculated from the relationship
where b and c are path length or cell thickness and concentration respectively. Thus, AM was [formula]
Another sample of the compound (0.3-0.5 g.) was stirred vigorously in 40 ml. of deionized water for approximately 72 hrs. to give a saturated solution. The mixture was filtered through very fine filter paper (Whatman No. 50) to remove all suspended solid. Small portions of the filtrate were diluted with water by various factors until an approximately mid-scale absorbance was obtained upon running an ultraviolet spectrum. Such an absorbance was obtained at a dilution of 10. The absorbance was 0.975 in a 10 cm. cell. Using the value for AM obtained earlier, in the equation

[2] = Amount of toxicant remaining in the test container after membrane diffusion raft tests; assay type: physicochemical; parameters: key: 0: empty or trace; +: some; + +: ample; conditions: after completion of membrane diffusion raft tests
Text: as §5, §7
^b Amount of toxicants remaining in the test container after the
completion of the membrane diffusion raft tests: 0 = empty or trace, + =

Structure (SMILES): COc1c(Cl)cccc1-n1sc(Cl)c(Cl)c1=O [Example 79]
- Lab Bioassay LD50 (Enteromorpha spores): 0.065 percentage saturated solution
- Barnacle Control (barnacle): +
- Weed Control (weed): + +
- Solubility by UV method: rapidly decomposes (remark) ([1]; Table 1 solubility column): rapidly decomposes
- Contents at the end of test (amount of toxicants remaining in the test container) [2]: + +

Structure (SMILES): Cc1c(Cl)sn(-c2ccc(Cl)cc2)c1=O [Example 114]
- Lab Bioassay LD50 (Enteromorpha spores): 0.008 percentage saturated solution
- Barnacle Control (barnacle): + +
- Weed Control (weed): + +
- solubility [1]: 14 µg/mL (≈ 53.8 µM)
- Contents at the end of test (amount of toxicants remaining in the test container) [2]: + +

Structure (SMILES): O=c1c(Br)c(Br)sn1C1CCCCC1 [Example 98]
- Lab Bioassay LD50 (Enteromorpha spores): 0.02 percentage saturated solution
- Barnacle Control (barnacle): 0
- Weed Control (weed): + +
- solubility [1]: 6.4 µg/mL (≈ 18.8 µM)
- Contents at the end of test (amount of toxicants remaining in the test container) [2]: +

Structure (SMILES): Cc1cccc(-n2sc(Cl)c(C)c2=O)c1 [Example 119]
- Lab Bioassay LD50 (Enteromorpha spores): 0.1 percentage saturated solution
- Barnacle Control (barnacle): 0
- Weed Control (weed): + +
- Contents at the end of test (amount of toxicants remaining in the test container) [2]: + +

Structure (SMILES): O=c1cc(Cl)sn1Cc1ccc(Cl)cc1 [Example 32]
- Lab Bioassay LD50 (Enteromorpha spores): 0.018 percentage saturated solution
- Barnacle Control (barnacle): +
- Weed Control (weed): + +
- solubility [1]: 70 µg/mL (≈ 269 µM)
- Contents at the end of test (amount of toxicants remaining in the test container) [2]: + +

Structure (SMILES): COc1ccc(-n2sc(Cl)cc2=O)cc1 [Example 38]
- Lab Bioassay LD50 (Enteromorpha spores): 0.025 percentage saturated solution
- Barnacle Control (barnacle): +
- Weed Control (weed): + +
- solubility [1]: 300 µg/mL (≈ 1240 µM)
- Contents at the end of test (amount of toxicants remaining in the test container) [2]: + +

Structure (SMILES): CCCCCCn1scc(Br)c1=O [Example 47]
- Lab Bioassay LD50 (Enteromorpha spores): > 1 percentage saturated solution
- Barnacle Control (barnacle): + +
- Weed Control (weed): 0
- Contents at the end of test (amount of toxicants remaining in the test container) [2]: +

Structure (SMILES): CCCCC(CC)Cn1sc(Cl)cc1=O (centres unmarked) [Example 17]
- Lab Bioassay LD50 (Enteromorpha spores): .013 percentage saturated solution
- Barnacle Control (barnacle): + +
- Weed Control (weed): + +
- solubility [1]: 135 µg/mL (≈ 545 µM)
- Contents at the end of test (amount of toxicants remaining in the test container) [2]: 0

Structure (SMILES): CC(C)(C)CC(C)(C)n1sc(Cl)c(Cl)c1=O [Example 59]
- Lab Bioassay LD50 (Enteromorpha spores): 0.006 percentage saturated solution
- Barnacle Control (barnacle): +
- Weed Control (weed): + +
- solubility [1]: 38 µg/mL (≈ 135 µM)
- Contents at the end of test (amount of toxicants remaining in the test container) [2]: + +

Structure (SMILES): O=c1c(Cl)c(Cl)sn1-c1ccc(Cl)cc1 [Example 75]
- Lab Bioassay LD50 (Enteromorpha spores): 0.006 percentage saturated solution
- Barnacle Control (barnacle): 0
- Weed Control (weed): + +
- solubility [1]: 3 µg/mL (≈ 10.7 µM)
- Contents at the end of test (amount of toxicants remaining in the test container) [2]: + +

Structure (SMILES): COc1c(Cl)cccc1-n1sc(Cl)cc1=O [Example 42]
- Lab Bioassay LD50 (Enteromorpha spores): 0.03 percentage saturated solution
- Barnacle Control (barnacle): +
- Weed Control (weed): + +
- solubility [1]: 45 µg/mL (≈ 163 µM)
- Contents at the end of test (amount of toxicants remaining in the test container) [2]: + +

Structure (SMILES): O=c1c(Cl)c(Cl)sn1CCc1ccccc1 [Example 69]
- Lab Bioassay LD50 (Enteromorpha spores): 0.01 percentage saturated solution
- Barnacle Control (barnacle): 0
- Weed Control (weed): + +
- solubility [1]: 22 µg/mL (≈ 80.2 µM)
- Contents at the end of test (amount of toxicants remaining in the test container) [2]: + +

Structure (SMILES): O=c1c(Cl)c(Cl)sn1-c1ccccc1 [Example 74]
- Lab Bioassay LD50 (Enteromorpha spores): 0.03 percentage saturated solution
- Barnacle Control (barnacle): + +
- Weed Control (weed): + +
- solubility [1]: 8 µg/mL (≈ 32.5 µM)
- Contents at the end of test (amount of toxicants remaining in the test container) [2]: + +

Structure (SMILES): O=c1c(Cl)c(Cl)sn1Cc1ccccc1 [Example 71]
- Lab Bioassay LD50 (Enteromorpha spores): 0.25 percentage saturated solution
- Barnacle Control (barnacle): + +
- Weed Control (weed): + +
- solubility [1]: 52 µg/mL (≈ 200 µM)
- Contents at the end of test (amount of toxicants remaining in the test container) [2]: +

Structure (SMILES): CCCCCCCCCCCCn1sc(Cl)cc1=O [Example 23]
- Lab Bioassay LD50 (Enteromorpha spores): 0.02 percentage saturated solution
- Barnacle Control (barnacle): +
- Weed Control (weed): + +
- solubility [1]: 0.7 to 1.5 µg/mL (≈ 2.3 to 4.94 µM)
- Contents at the end of test (amount of toxicants remaining in the test container) [2]: +

Structure (SMILES): CCCCC(CC)Cn1sc(Cl)c(Cl)c1=O (centres unmarked) [Example 58]
- Lab Bioassay LD50 (Enteromorpha spores): 0.0024 percentage saturated solution
- Barnacle Control (barnacle): + +
- Weed Control (weed): + +
- solubility [1]: 30 µg/mL (≈ 106 µM)
- Contents at the end of test (amount of toxicants remaining in the test container) [2]: +

Structure (SMILES): CCCCCCCCCCCCCCn1sccc1=O [Example 7]
- Lab Bioassay LD50 (Enteromorpha spores): 0.1 percentage saturated solution
- Barnacle Control (barnacle): 0
- Weed Control (weed): 0
- Contents at the end of test (amount of toxicants remaining in the test container) [2]: + +

Structure (SMILES): Cc1c(Cl)sn(-c2ccccc2C(F)(F)F)c1=O [Example 128]
- Lab Bioassay LD50 (Enteromorpha spores): 0.6 percentage saturated solution
- Barnacle Control (barnacle): 0
- Weed Control (weed): + +
- Contents at the end of test (amount of toxicants remaining in the test container) [2]: +

Structure (SMILES): CCOC(=O)c1ccc(-n2sc(Cl)c(C)c2=O)cc1 [Example 126]
- Lab Bioassay LD50 (Enteromorpha spores): 0.13 percentage saturated solution
- Barnacle Control (barnacle): + +
- Weed Control (weed): +
- Contents at the end of test (amount of toxicants remaining in the test container) [2]: + +

Structure (SMILES): Cc1c(Cl)sn(CCc2ccccc2)c1=O [Example 108]
- Lab Bioassay LD50 (Enteromorpha spores): > 1 percentage saturated solution
- Barnacle Control (barnacle): + +
- Weed Control (weed): 0
- solubility [1]: 155 µg/mL (≈ 611 µM)
- Contents at the end of test (amount of toxicants remaining in the test container) [2]: +

Structure (SMILES): O=c1c(Br)c(Br)sn1Cc1ccc(Cl)cc1 [Example 99]
- Lab Bioassay LD50 (Enteromorpha spores): 0.01 percentage saturated solution
- Barnacle Control (barnacle): +
- Weed Control (weed): + +
- solubility [1]: 1.7 µg/mL (≈ 4.43 µM)
- Contents at the end of test (amount of toxicants remaining in the test container) [2]: + +

Structure (SMILES): O=c1cc(Cl)sn1-c1ccc(I)cc1 [Example 36]
- Lab Bioassay LD50 (Enteromorpha spores): 0.08 percentage saturated solution
- Barnacle Control (barnacle): 0
- Weed Control (weed): + +
- Contents at the end of test (amount of toxicants remaining in the test container) [2]: + +

Structure (SMILES): Cc1c(Cl)sn(-c2ccc(O)cc2)c1=O [Example 125]
- Lab Bioassay LD50 (Enteromorpha spores): > 1 percentage saturated solution
- Barnacle Control (barnacle): 0
- Weed Control (weed): + +
- Contents at the end of test (amount of toxicants remaining in the test container) [2]: + +

Structure (SMILES): CCCCCCCCCCCCCCCCCCn1sc(Cl)cc1=O [Example 26]
- Lab Bioassay LD50 (Enteromorpha spores): 1.0 percentage saturated solution
- Barnacle Control (barnacle): 0
- Weed Control (weed): 0
- Contents at the end of test (amount of toxicants remaining in the test container) [2]: + +

Structure (SMILES): Cc1ccc(-n2sc(Cl)c(C)c2=O)cc1C [Example 122]
- Lab Bioassay LD50 (Enteromorpha spores): 0.01 percentage saturated solution
- Barnacle Control (barnacle): + +
- Weed Control (weed): + +
- Contents at the end of test (amount of toxicants remaining in the test container) [2]: + +

Structure (SMILES): Cc1c(Cl)sn(-c2ccc(I)cc2)c1=O [Example 117]
- Lab Bioassay LD50 (Enteromorpha spores): 0.2 percentage saturated solution
- Barnacle Control (barnacle): + +
- Weed Control (weed): +
- Contents at the end of test (amount of toxicants remaining in the test container) [2]: + +

Structure (SMILES): O=c1cc(Cl)sn1-c1ccc(Oc2ccccc2)cc1 [Example 39]
- Lab Bioassay LD50 (Enteromorpha spores): 0.6 percentage saturated solution
- Barnacle Control (barnacle): + +
- Weed Control (weed): 0
- Contents at the end of test (amount of toxicants remaining in the test container) [2]: + +

Structure (SMILES): O=c1cc(Cl)sn1-c1ccc(Br)cc1 [Example 35]
- Lab Bioassay LD50 (Enteromorpha spores): 0.22 percentage saturated solution
- Barnacle Control (barnacle): 0
- Weed Control (weed): + +
- Contents at the end of test (amount of toxicants remaining in the test container) [2]: + +
